A word on the melting point: it is the temperature of the solid-liquid transition.

The target of data set [1] is T1, human Adenosine A3 receptor (Homo sapiens, UniProt P0DMS8).
T1 sequence (P0DMS8 1-318): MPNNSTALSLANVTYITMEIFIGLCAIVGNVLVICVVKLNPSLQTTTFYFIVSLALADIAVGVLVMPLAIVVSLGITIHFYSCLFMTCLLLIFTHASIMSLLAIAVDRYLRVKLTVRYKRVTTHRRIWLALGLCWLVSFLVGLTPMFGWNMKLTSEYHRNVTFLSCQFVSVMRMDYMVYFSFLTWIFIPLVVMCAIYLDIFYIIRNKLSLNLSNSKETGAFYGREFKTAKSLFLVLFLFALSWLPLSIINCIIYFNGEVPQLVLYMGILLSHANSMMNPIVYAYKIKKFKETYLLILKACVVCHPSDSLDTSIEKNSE
Put plainly: In vitro affinity for human adenosine-A3 receptors (radioligand [125I]-AB-MECA). Type of data set: binding. Also noted: expressed in transfected cells; host or cells: HEK 293 cells (membrane preparations). The conditions noted are these: membranes of HEK 293 cells stably expressing human A3, [125I]-AB-MECA, 22° C., 90 minutes; read-out: Adenosine receptor affinity (binding) A3 pKi (converted). As to the method: Affinity of the compounds for human adenosine-A3 receptors was determined using the receptor binding assay described by C. A. Salvatore et al.: “Molecular cloning and characterization of the human A3 adenosine receptor”, Proc. Natl. Acad. Sci. USA, 90, 10365-10369, 1993. Briefly, membrane preparations were obtained from human recombinant (HEK 293) cells in which the human adenosine-A3 receptor was stably expressed. […] Separation of bound radioactivity from free was done by filtration through Packard GF/B glass fiber filters with several washings with ice-cold buffer using a Packard cell harvester. Bound radioactivity was measured with a scintillation counter (Topcount, Packard) using a liquid scintillation cocktail (Microscint 0, Packard). […] Determination of In Vitro Functional Activity on Human Adenosine A3 Receptors Using an Aequorin-based Assay

The target in data set [2] is T1, human Adenosine A3 receptor. Briefly: In vitro functional activity on human adenosine A3 receptors using an Aequorin-based assay. The conditions noted are these: hA3-Aequorin CHO-K1 cells; for EC50: agonist mode, concentrations up to 10^−5 M, read-out: Functional activity A3 agonism pEC50 (converted); for Kb: read-out: Functional activity A3 antagonism pA2 (converted). The format is cell-based. Also noted: A. et al. (Acc. Number GenBank: L22607); host or cells: CHO-K1 cells stably expressing mitochondrially targeted aequorin and Galpha16. An excerpt: A stable monoclonal hA3-Aequorin cell line was provided by Euroscreen. The coding region encoding the human Adenosine A3 receptor was amplified by polymerase chain reaction (PCR), using human lung cDNA as template. The PCR product was ligated in the expression vector pEFIN3 (Invitrogen), and the complete sequence of the insert was then established. […] A. et al. (Acc. Number GenBank: L22607). The expression plasmid containing the coding sequence of the human Adenosine A3 receptor was transfected in CHO-K1 cells stably expressing mitochondrially targetted Aequorin and Gα16. Resistant clones were selected in the presence of 400 μg/ml G418 and isolated by limiting dilution. […] The hA3-Aequorin cells express mitochondrially targetted apo-Aequorin. Cells have to be loaded with coelenterazine, in order to reconstitute active Aequorin. After binding of agonists to the hA3 receptor, the intracellular calcium concentration increases, which leads to a luminescent response. Binding of calcium to the apo-Aequorin/coelenterazine complex leads to an oxidation reaction of coelenterazine, which results in the production of apo-Aequorin, coelenteramide, CO2 and light (λmax 469 nm). This luminescent response is dependent on the agonist concentration.
Assay-protocol: • Dilute the loaded cells 18× in Dulbecco's medium without PhenolRed (Gibco BRL), pre-heated to 37° C., resulting in a concentration of 2.8*10^5 cells/ml. • Stir for 1 hour at room temperature. • Add 10 μl compound or control per well in white 96-well plates. • Add 90 μl of diluted cells (2.5*10^4 cells/well). • Measure chemoluminescence immediately for 20 seconds. • In antagonist mode 50 μl 10^−6 N6-benzyl-NECA is added as the agonist. • Measure chemoluminescence immediately for 20 seconds using the MicroBetaJet (PerkinElmer).

The target of data set [3] is T2, human adenosine-A2B receptors (Homo sapiens, UniProt P29275).
T2 construct: expressed in transfected cells; host or cells: HEK-293 cells
T2 sequence (P29275 1-332): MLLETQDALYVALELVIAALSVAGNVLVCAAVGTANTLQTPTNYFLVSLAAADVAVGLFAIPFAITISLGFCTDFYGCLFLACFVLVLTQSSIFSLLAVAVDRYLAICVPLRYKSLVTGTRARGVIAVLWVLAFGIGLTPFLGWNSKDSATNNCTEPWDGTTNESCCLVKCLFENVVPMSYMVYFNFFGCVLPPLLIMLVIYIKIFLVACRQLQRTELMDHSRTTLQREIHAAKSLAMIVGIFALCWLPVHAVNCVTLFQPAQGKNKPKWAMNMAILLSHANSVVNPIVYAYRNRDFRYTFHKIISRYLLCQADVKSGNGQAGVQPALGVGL
Briefly: In vitro affinity for human adenosine-A2B receptors (radioligand [3H]MRS 1754). The format is binding. The note with it: human recombinant receptors expressed in HEK-293 cells; for Ki: read-out: Adenosine receptor affinity (binding) A2B pKi (converted). As to the method: Affinity of the compounds for human adenosine-A2B receptors was determined using the receptor binding assay described by J. H. Stehle et al. (Mol. Endocrinol., 6, 384, 1992), using human recombinant receptors expressed in HEK-293 cells, and [^3H]MRS 1754 as radioligand.

The target in data set [4] is T3, human adenosine-A2A receptors (Homo sapiens, UniProt P29274).
T3 construct: expressed in transfected cells; host or cells: HEK-293 cells
Briefly: In vitro affinity for human adenosine-A2A receptors (radioligand [3H]CGS 21680). The format is binding. The note with it: human recombinant receptors expressed in HEK-293 cells; for Ki: read-out: Adenosine receptor affinity (binding) A2A pKi (converted). How it is done:
Affinity of the compounds for human adenosine-A2A receptors was determined using the receptor binding assay described by D. R. Luthin et al., (Mol. Pharmacol., 47, 307, 1995), using human recombinant receptors expressed in HEK-293 cells, and [^3H]CGS 21680 as radioligand.

Data set [5] concerns the target T4, human adenosine-A1 receptors (Homo sapiens, UniProt P30542).
T4 construct: expressed in transfected cells; host or cells: CHO cells
T4 sequence (P30542 1-326): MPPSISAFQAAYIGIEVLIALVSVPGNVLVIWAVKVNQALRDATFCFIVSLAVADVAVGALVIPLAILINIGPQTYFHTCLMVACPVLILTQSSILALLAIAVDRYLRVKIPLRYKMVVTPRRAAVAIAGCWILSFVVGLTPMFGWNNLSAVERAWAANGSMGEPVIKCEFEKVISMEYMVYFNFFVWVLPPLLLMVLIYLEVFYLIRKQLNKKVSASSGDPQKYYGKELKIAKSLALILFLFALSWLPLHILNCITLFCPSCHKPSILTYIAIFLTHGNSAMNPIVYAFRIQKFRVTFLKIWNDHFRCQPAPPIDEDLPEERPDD
Put plainly: In vitro affinity for human adenosine-A1 receptors (radioligand [3H]DPCPX). The note with it: human recombinant receptors expressed in CHO cells; for Ki: read-out: Adenosine receptor affinity (binding) A1 pKi (converted). The format is binding. How it is done: Affinity of the compounds for human adenosine-A1 receptors was determined using the receptor binding assay described by A. Townsend-Nicholson and P. R. Schofield (Biol. Chem., 269, 2373, 1994), using human recombinant receptors expressed in CHO cells, and [^3H]DPCPX as radioligand.

[6] abbreviates: antagonist mode, N6-benzyl-NECA as the agonist.

T3 sequence (P29274 whole entry): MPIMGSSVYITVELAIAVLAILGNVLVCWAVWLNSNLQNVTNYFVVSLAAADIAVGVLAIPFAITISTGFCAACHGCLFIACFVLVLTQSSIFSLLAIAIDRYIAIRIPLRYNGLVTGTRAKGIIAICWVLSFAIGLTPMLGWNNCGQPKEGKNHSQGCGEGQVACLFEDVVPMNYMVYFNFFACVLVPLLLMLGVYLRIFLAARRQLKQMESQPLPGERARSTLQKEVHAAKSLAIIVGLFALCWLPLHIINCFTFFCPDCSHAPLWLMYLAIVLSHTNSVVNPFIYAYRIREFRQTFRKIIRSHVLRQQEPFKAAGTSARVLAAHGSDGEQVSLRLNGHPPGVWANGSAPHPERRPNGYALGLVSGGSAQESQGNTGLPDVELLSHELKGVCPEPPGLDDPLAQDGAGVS

Take `FC(F)(F)c1nc(NCc2ccccc2)nc2nc[nH]c12` [Compound 6, 6-trifluoromethyl-2-benzylamino purine]: the Ki in data set [1] was 0.02 µM; in data set [3], greater than 10 µM; in data set [4], 20 µM; in data set [5], 3.98 µM. Also, the EC50 in data set [2] was greater than 10 µM. Moreover, in data set [2] (setting [6]), the Kb was 0.158 µM.

`Cn1cnc2c(C(F)(F)F)nc(NCc3ccccc3)nc21` [Compound 7, 6-trifluoromethyl-9-methyl-2-benzylamino purine]: the Ki was 3.16 µM in data set [1], greater than 10 µM in data set [3], greater than 10 µM in data set [4] and greater than 10 µM in data set [5]. Further, the EC50 in data set [2] is greater than 10 µM. Besides, the Kb in data set [2] (setting [6]) is 1.58 µM.

For `OC[C@H]1O[C@@H](n2cnc3c(C(F)(F)F)nc(NCc4ccccc4)nc32)[C@H](O)[C@@H]1O` [Compound 8, 2-benzylamino-6-trifluoromethyl-9-β-D-ribofuranosyl purine], the Ki in data set [1] was 0.316 µM; in data set [3], greater than 10 µM; in data set [4], 12.6 µM; in data set [5], 7.94 µM. In addition, in data set [2] (setting [6]), the Kb is 0.0398 µM.

Take `FC(F)(F)c1nc(NCCc2ccccc2)nc2nc[nH]c12` [Compound 9, 6-trifluoromethyl-2-phenethylamino purine]: the Ki was 0.0126 µM in data set [1], greater than 10 µM in data set [3], 12.6 µM in data set [4] and 1 µM in data set [5]. The EC50 in data set [2] is greater than 10 µM. In addition, in data set [2] (setting [6]), the Kb is 0.002 µM.

Regarding `Cn1cnc2c(C(F)(F)F)nc(NCCc3ccccc3)nc21` [Compound 10, 6-trifluoromethyl-9-methyl-2-phenethylamino purine], the Ki in data set [1] is 1.58 µM; in data set [3] it was 12.6 µM; in data set [4], 15.8 µM; in data set [5], 6.31 µM. Besides, in data set [2], the EC50 was greater than 10 µM. Besides, the Kb in data set [2] (setting [6]) was 3.16 µM.

With `Cn1c(Br)nc2c(C(F)(F)F)nc(NCCc3ccccc3)nc21` [Compound 11, 8-bromo-6-trifluoromethyl-9-methyl-2-phenethylamino purine], the melting point lay within 131 to 139 °C. Besides, the Ki in data set [1] was 1 µM. In addition, the Ki in data set [4] was greater than 10 µM. Moreover, the Ki in data set [5] is greater than 10 µM.

`Cn1c(-c2cccs2)nc2c(C(F)(F)F)nc(NCCc3ccccc3)nc21` [Compound 14, 8-(thien-2-yl)-6-trifluoromethyl-9-methyl-2-phenethylamino purine]: the Ki in data set [1] is 1.58 µM; in data set [4], greater than 10 µM; in data set [5] it was 6.31 µM. Further, the EC50 in data set [2] is greater than 10 µM. Further, the Kb in data set [2] (setting [6]) was 1.58 µM.

As for `Cn1c(/C=C\c2ccccc2)nc2c(C(F)(F)F)nc(NCCc3ccccc3)nc21` [Compound 22, 8-Z-styryl-6-trifluoromethyl-9-methyl-2-phenethylamino purine], the Ki in data set [1] was 2 µM; in data set [4], greater than 10 µM; in data set [5], greater than 10 µM. The EC50 in data set [2] is greater than 10 µM. In data set [2] (setting [6]), the Kb is 1 µM.

With `OC[C@H]1O[C@@H](n2cnc3c(C(F)(F)F)nc(NCCc4ccccc4)nc32)[C@H](O)[C@@H]1O` [Compound 26, 2-phenethylamino-6-CF3-9-β-D-ribofuranosyl purine], in data set [2] (setting [6]), the “Functional activity A3 antagonism pA2” value came to 9.8. Besides, in data set [3], the “Adenosine receptor affinity (binding) A2B pKi” value is listed as less than 5.0. In data set [4], the “Adenosine receptor affinity (binding) A2A pKi” value is reported as less than 5.0. Moreover, in data set [5], the “Adenosine receptor affinity (binding) A1 pKi” value is reported as less than 5.0.

Regarding `CC(C)(C)OC(=O)OCn1cnc2c(C(F)(F)F)nc(NCc3ccccc3)nc21` [Compound 29, 6-trifluoromethyl-2-benzylamino-9-BocOM-purine], the Ki in data set [1] is 0.0794 µM; in data set [4], 20 µM; in data set [5], 2.51 µM. In addition, the EC50 in data set [2] is greater than 10 µM. The Kb in data set [2] (setting [6]) was 7.94 µM.

(Values after patent US7371737B2, “2-substituted-6-trifluoromethyl purine derivatives with adenosine-A3 antagonistic activity” (Solvay Pharmaceuticals, B.V., priority 2004, dated 2008).)
